# Results reported in patent US8772235B2, “Compounds having peptides conjugated to bone targeting moieties and methods of making and using thereof” (The Governors of the University of Alberta, priority 2009, dated 2014).
# Columns and labels:
# [1] = Circular dichroism, secondary structure of sCT, sCT-SMCC and sCT-BP; format: physicochemical; conditions: 20 mM acetate buffer pH 5.0, 400 μg/mL sCT or equivalent
# Method: For a more detailed analysis of the influence of BP coupling on secondary structural confirmation of sCT, the circular dichroism (CD) spectrum of sCT, sCT-SMCC and sCT-BP was measured in the 20 mM acetate buffer pH 5.0. CD spectra were obtained with a ConvCD spectrophotometer instrument. Spectra were acquired over a wavelength range of 190 to 260 nm. The N2 flow rate was set at 5 l/min. The sample cuvette was cleaned with 20 mM Sodium Acetate buffer pH 5, and the spectra of test samples, which comprised of 400 μg/mL of sCT or equivalent the same buffer, were recorded with the corresponding buffer serving as blanks.
# [2] = Bone mineral specificity: calcium carbonate binding assay; conditions: 1 h, 100 mM phosphate buffer pH 7
# Method: (§1) Bone targeting potential of sCT analogue was evaluated by determining the effect of sCT modification (due to chemical coupling) upon its bone mineral affinity. Specific volume of purified sCT analogue solution containing 10 μg of sCT was mixed with 1 mg Hydroxyapatite (HA) in 150 μL 100 mM phosphate buffer (pH 7.0) in microcentrifuge tubes in duplicate to give a final concentration of 66.67 μg/ml sCT. As a reference, control samples were incubated in tubes without HA (i.e., 0% of binding).
# (§2) The tubes were incubated at room temperature on a shaker for 1 h, and centrifuged at 5000 g for 5 minutes to separate the HA from the supernatant. sCT concentration in the supernatant was determined using the BCA microprotein assay (Pierce, USA) as described above. HA centrifugate remaining after removal of supernatant was washed five times using 1 mL buffer each time and the last washing after centrifugation at 5000 g for 5 minutes was collected. Both the washings and the HA centrifugate were then analyzed for sCT as described above. The amount of sCT in the supernatant, washings and HA centrifugate was then inferred by measuring the absorbance at 562 nm, with a value of 100% for control samples without HA.
# Bone mineral specificity of sCT analogue was then determined in the above manner using HA, calcium carbonate, calcium pyrophosphate, tricalcium phosphate and calcium oxalate.
# [3] = Effect on plasma calcium level in normal rats (PEG series); format: in vivo, rat; conditions: 20 IU sCT/kg equivalent, subcutaneous
# Method: (§3) Pharmacodynamic response of sCT analogue was evaluated by analyzing plasma calcium concentration in the rat model. Sprague Dawley female rats weighing 230-260 g (about 6 weeks old) were purchased from Charles River, USA and housed at the University of Alberta Animal Holding Unit. All experimental protocols were approved by the Animals Ethics Committee of the University of Alberta. The rats were divided randomly into five groups of 3 animals each and the pharmacodynamic response was assessed following subcutaneous administration of the sCT or analogue equivalent to 20 IU sCT/kg body weight. Rats were anesthetized using Isoflurane inhalation anesthesia and the 200 μl blood samples were obtained in heparinized Eppendorf microtubes before drug injection. Then 100 μl of sCT or equivalent dose in 20 mM Sodium Acetate buffer pH 5 was injected and the blood samples were collected 1, 2, 3 and 4 hrs post injection from jugular vein. Blood plasma was obtained by centrifuging the samples at 5000 rpm for 10 min and collecting the supernatant. Plasma calcium level was assayed by QuantiChrom™ Calcium Assay Kit (BioAssay Systems, CA USA) and the plasma phosphate level was assayed by QuantiChrom™ Phosphate Assay Kit (BioAssay Systems, CA USA).
# [4] = Effect on plasma phosphate level in normal rats (PEG series); format: in vivo, rat; conditions: 20 IU sCT/kg equivalent, subcutaneous
# Method: as §3
# [5] = tested on: RAW 264.7 cells; experiment: MTT cytotoxicity on osteoclast precursor RAW 264.7 cells (PEG series); format: cell-based, mouse; conditions: 100, 500 and 1000 nM sCT or equivalent, 4 hours incubation
# Method: RAW 264.7 cells (ATCC VA, USA) were seeded on 96 well plates at an initial density of 2×10^4 cells/well and incubated in 200 μl GIBCO High Glucose 1× Dulbecco's Modified Eagle Medium (DMEM) (Invitrogen CA, USA) supplemented with 4.5 g/L D-Glucose, L-Glutamine, 110 mg/L Sodium Pyruvate, 10% heat inactivated fetal bovine serum (FBS) and 1% Penicillin-Streptomycin (10000 U/mL; Invitrogen) in a Thermo Fisher Scientific Water Jacketed CO2 incubator (37° C., 5% CO2) until the cells were 80% confluent.
# After 72 hrs, media was replaced by 200 μl basic DMEM media without FBS and incubated for 30 minutes. […] After removing the supernatant and washing twice with phosphate buffer saline, purple formazan crystals formed were dissolved in 200 μl solubilization solution (in vitro toxicology assay kit, # TOX-1, Sigma Aldrich, St. Louis, USA) and the absorbance was measured at 570 nm using microplate reader. Experiment was performed for n=8 and the absorbance of wells containing cells without sCT treatment was considered as 100% viable and used to calculate the relative viability of sCT treated cells.
# In all in vitro and in vivo bioactivity assay the maximum concentration used was equivalent to 100 nM sCT. However, cytoxicity was determined for the concentration up to 1000 nM sCT or equivalent. […]
# [6] = Hydroxyapatite (HA) binding assay, bone mineral affinity; conditions: 10 μg sCT, 1 mg HA, 1 h, 100 mM phosphate buffer pH 7.0
# Method: as §1, §2
# [7] = first hour, vs acetate buffer controls
substance,measurement,setting,value
"Salmon calcitonin [sCT, reference compound]",secondary structure by CD spectrum,[1],random coil conformation
same,sCT concentration in supernatant after incubation with Calcium carbonate,[2],did not significantly reduce the sCT concentration in the supernatant
same,percentage of plasma calcium reduction,[3]; 4 hour post dosing,33.1±2.1%
same,percentage of plasma calcium reduction,[3]; [7],20.4±5.5%
same,percentage of plasma calcium reduction,[3]; second hour,29.9±4.9%
same,percentage of plasma phosphate reduction,[4]; 4 hour post dosing,15.7±3.7%
same,percentage of plasma phosphate reduction,[4]; [7],22.1±6.24%
same,percentage of plasma phosphate reduction,[4]; second hour,22.7±13.01%
same,cytotoxicity (absorbance of formazan solution) compared to untreated media,[5],low levels of cytotoxicity
same,sCT bound in HA,[6],did not significantly bind to HA
